According to US12171756B2, “NLRP3 modulators” (Innate Tumor Immunity, Inc., priority 2017, dated 2024):
Structures can show the parent of a compound that is named as a salt. Where two headings read alike, the source gives them in different places.

Experiments:
[1] = tested on: IL-1β production in PMA-differentiated THP-1 cells; assay: Measurement of IL-1β production in PMA-differentiated THP-1 cells (ELISA, 4 hours); type: cell-based, human; conditions: assayed using one or more of the described procedures, read-out: NLRP3 hIL1B IC50
Procedure, shortened: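 IL-1β released into supernatant was measured by ELISA after a 4-hour compound exposure (final DMSO 1%, concentrations such as 100 down to 0.1 μM). Cells: THP-1 pretreated 24 h with 10 μg/ml PMA, then trypsinized and seeded at 1×10^6/ml in 2% FBS RPMI.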

human TLR7 = target: T1, human TLR7 (Homo sapiens, UniProt Q9NYK1); assay: In vitro human TLR7 binding reporter assay (HEK-Blue, NF-kB/AP1-inducible SEAP); type: cell-based; conditions: HEK-Blue human TLR7 SEAP reporter cells; activity range classes; read-out: TLR7 Agonist EC50
T1 construct: host or cells: human HEK-Blue cells (HEK293-derived) co-expressing TLR7 and an NF-kB/AP1-inducible SEAP reporter
T1 sequence (Q9NYK1 27-1049): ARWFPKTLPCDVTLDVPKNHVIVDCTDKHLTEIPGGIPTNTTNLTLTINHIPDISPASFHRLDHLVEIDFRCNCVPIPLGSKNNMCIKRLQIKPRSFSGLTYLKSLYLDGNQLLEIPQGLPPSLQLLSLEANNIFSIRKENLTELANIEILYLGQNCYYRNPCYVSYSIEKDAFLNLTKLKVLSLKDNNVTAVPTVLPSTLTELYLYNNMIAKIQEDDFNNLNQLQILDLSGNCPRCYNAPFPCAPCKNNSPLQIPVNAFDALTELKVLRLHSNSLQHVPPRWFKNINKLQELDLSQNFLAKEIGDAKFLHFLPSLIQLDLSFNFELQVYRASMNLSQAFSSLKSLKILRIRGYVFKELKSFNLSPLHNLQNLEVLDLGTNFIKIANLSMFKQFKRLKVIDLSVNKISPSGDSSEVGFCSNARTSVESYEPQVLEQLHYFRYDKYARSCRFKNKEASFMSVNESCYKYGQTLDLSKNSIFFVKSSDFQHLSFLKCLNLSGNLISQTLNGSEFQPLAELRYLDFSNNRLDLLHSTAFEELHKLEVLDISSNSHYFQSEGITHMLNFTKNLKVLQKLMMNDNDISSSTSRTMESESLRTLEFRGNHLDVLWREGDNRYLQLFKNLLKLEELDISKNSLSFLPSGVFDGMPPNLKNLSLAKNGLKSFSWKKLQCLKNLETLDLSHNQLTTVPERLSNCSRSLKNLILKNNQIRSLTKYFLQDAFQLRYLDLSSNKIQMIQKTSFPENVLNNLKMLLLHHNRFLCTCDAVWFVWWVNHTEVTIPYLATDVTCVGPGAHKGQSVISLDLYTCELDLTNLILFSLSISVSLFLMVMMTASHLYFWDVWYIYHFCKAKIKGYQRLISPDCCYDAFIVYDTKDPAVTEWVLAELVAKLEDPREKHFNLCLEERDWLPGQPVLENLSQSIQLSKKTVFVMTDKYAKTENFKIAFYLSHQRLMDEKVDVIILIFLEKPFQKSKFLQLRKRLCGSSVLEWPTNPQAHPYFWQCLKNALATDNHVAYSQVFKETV
Procedure, shortened: (§1)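 HEK-Blue cells expressing human TLR7 or TLR8 with NF-kB/AP1-inducible SEAP reporter, plated 24 h, then compound-treated 18 h at 37° C, 5% CO2. EC50 normalized to 100% Ymax set by 50 μM reference standard.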

human TLR8 = target: T2, human TLR8 (Homo sapiens, UniProt Q9NR97); assay: In vitro human TLR8 binding reporter assay (HEK-Blue, NF-kB/AP1-inducible SEAP); type: cell-based; conditions: HEK-Blue human TLR8 SEAP reporter cells; activity range classes; read-out: TLR8 Agonist EC50
T2 construct: host or cells: human HEK-Blue cells (HEK293-derived) co-expressing TLR8 and an NF-kB/AP1-inducible SEAP reporter
T2 sequence (Q9NR97 27-1041): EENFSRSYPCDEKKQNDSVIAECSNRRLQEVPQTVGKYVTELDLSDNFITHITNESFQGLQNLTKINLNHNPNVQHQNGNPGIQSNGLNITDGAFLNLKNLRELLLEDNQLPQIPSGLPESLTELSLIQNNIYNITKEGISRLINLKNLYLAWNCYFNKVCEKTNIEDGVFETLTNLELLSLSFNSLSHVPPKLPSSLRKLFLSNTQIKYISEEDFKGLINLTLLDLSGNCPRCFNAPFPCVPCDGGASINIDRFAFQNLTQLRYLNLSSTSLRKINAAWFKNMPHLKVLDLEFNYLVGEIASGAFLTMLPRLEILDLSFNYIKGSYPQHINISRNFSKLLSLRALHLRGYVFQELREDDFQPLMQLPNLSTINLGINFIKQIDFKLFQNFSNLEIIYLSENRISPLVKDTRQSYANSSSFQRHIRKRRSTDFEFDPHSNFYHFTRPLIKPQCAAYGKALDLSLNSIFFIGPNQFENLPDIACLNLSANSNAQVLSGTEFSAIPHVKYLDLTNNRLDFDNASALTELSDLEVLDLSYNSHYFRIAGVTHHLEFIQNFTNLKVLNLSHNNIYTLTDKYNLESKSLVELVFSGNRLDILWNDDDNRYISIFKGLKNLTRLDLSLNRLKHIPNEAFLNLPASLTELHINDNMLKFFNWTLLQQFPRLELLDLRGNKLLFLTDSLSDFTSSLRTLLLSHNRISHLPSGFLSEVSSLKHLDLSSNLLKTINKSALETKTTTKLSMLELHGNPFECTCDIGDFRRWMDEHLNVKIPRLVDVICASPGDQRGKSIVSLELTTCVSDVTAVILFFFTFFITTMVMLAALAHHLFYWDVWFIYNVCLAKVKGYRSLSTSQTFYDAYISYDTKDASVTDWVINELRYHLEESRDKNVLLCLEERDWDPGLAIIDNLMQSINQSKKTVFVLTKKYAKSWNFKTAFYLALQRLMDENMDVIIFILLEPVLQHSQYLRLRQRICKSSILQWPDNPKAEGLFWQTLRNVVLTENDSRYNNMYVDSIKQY
Procedure, shortened: as §1

[2] = Homo sapiens, THP-1, human IL-1β production

Row | Structure (SMILES) | IC50 [1, 2] [µM] | EC50 (human TLR7) [µM] | EC50 (human TLR8) [µM] | IC50 ([1]; human IL-1β production) [µM]
1 | Nc1cc(NCc2ncccn2)c2ccc(-c3ccn[nH]3)cc2n1 [Compound 316, 7-(1H-pyrazol-5-yl)-N4-(pyrimidin-2-ylmethyl)quinoline-2,4-diamine] | 0.56 | > 100 | > 100 | –
2 | Nc1cc(NCc2cncnc2)c2ccc(-c3ccn[nH]3)cc2n1 [Compound 317] | 0.69 | > 100 | > 100 | –
3 | Nc1cc(NCCCO)c2cc(F)c(-c3ccn[nH]3)cc2n1 [Compound 318, 3-((2-amino-6-fluoro-7-(1H-pyrazol-5-yl)quinolin-4-yl)amino)propan-1-ol] | 0.07 | > 100 | > 100 | –
4 | Cc1cc2c(NCCCO)cc(N)nc2cc1-c1ccn[nH]1 [Compound 319] | 25.7 | > 100 | > 100 | –
5 | COc1cc2c(NCCCO)cc(N)nc2cc1-c1ccn[nH]1 [Compound 320] | 27.7 | > 100 | > 100 | –
6 | Nc1cc(NCCc2cccs2)c2ccc(-c3cc[nH]n3)cc2n1 [Compound 322, 7-(1H-pyrazol-3-yl)-N4-(2-(thiophen-2-yl)ethyl)quinoline-2,4-diamine] | 0.61 | > 100 | > 100 | –
7 | Nc1cc(N[C@@H]2CCNC2)c2ccc(-c3ccn[nH]3)cc2n1 [Compound 323] | – | > 100 | > 100 | 5.72
8 | Nc1cc(N[C@H]2CCCNC2)c2ccc(-c3ccn[nH]3)cc2n1 [Compound 324] | 1.76 | > 100 | > 100 | –
9 | Nc1cc(NCC2CNC2)c2ccc(-c3ccn[nH]3)cc2n1 [Compound 325] | 23.2 | > 100 | > 100 | –
10 | Nc1cc(NC[C@@H]2CCCNC2)c2ccc(-c3ccn[nH]3)cc2n1 [Compound 326] | 24.7 | > 100 | > 100 | –
11 | Nc1cc(NCC2CCNC2)c2ccc(-c3ccn[nH]3)cc2n1 (stereo not drawn) [Compound 327] | 4.66 | > 100 | > 100 | –
12 | Nc1cc(OCCc2ccsc2)c2ccc(-c3cc[nH]n3)cc2n1 [Compound 329, 7-(1H-pyrazol-3-yl)-4-(2-(thiophen-3-yl)ethoxy)quinolin-2-amine] | 0.67 | > 100 | > 100 | –
13 | Nc1cc(OCCc2ccsc2)c2ccc(-c3cccs3)cc2n1 [Compound 330] | 24.6 | > 100 | > 100 | –
14 | Nc1cc(OCCc2ccsc2)c2ccc(-c3ccsc3)cc2n1 [Compound 331] | 14.6 | > 100 | > 100 | –
15 | Nc1cc(OCC2(CO)COC2)c2ccc(-c3ccsc3)cc2n1 [Compound 332, (3-(((2-amino-7-(thiophen-3-yl)quinolin-4-yl)oxy)methyl)oxetan-3-yl)methanol] | 0.65 | > 100 | > 100 | –
16 | Nc1cc(OCC2(CO)COC2)c2ccc(-c3ccn[nH]3)cc2n1 [Compound 333] | 1.31 | > 100 | > 100 | –
17 | Nc1cc(OCC2(CO)CCC2)c2ccc(-c3cccs3)cc2n1 [Compound 334, (1-(((2-amino-7-(thiophen-2-yl)quinolin-4-yl)oxy)methyl)cyclobutyl)methanol] | 2.62 | > 100 | > 100 | –
18 | Nc1cc(OCC2(CO)CCC2)c2ccc(-c3ccn[nH]3)cc2n1 [Compound 335] | 0.63 | > 100 | > 100 | –
19 | Nc1cc(OCC2(CO)CCC2)c2ccc(-c3ccsc3)cc2n1 [Compound 336] | 2.03 | > 100 | > 100 | –
20 | Nc1cc(OCCCC(F)(F)F)c2ccc(-c3ccsc3)cc2n1 [Compound 337] | 9.17 | > 100 | > 100 | –
21 | Nc1cc(NCC2(CO)COC2)c2ccc(-c3ccsc3)cc2n1 [Compound 338, (3-(((2-amino-7-(thiophen-3-yl)quinolin-4-yl)amino)methyl)oxetan-3-yl)methanol] | 3.41 | > 100 | > 100 | –
22 | Nc1cc(-c2ccn[nH]2)c2ccc(-c3ccn[nH]3)cc2n1 [Compound 339, 4,7-di(1H-pyrazol-5-yl)quinolin-2-amine, HCl] | 0.48 | > 100 | > 100 | –
23 | Nc1cc(NCCc2cccnn2)c2ccc(-c3cc[nH]n3)cc2n1 [Compound 340, 7-(1H-pyrazol-3-yl)-N4-(2-(pyridazin-3-yl)ethyl)quinolin-2,4-diamine] | 0.73 | > 100 | > 100 | –
24 | Nc1cc(NCCc2cccnn2)c2ccc(-c3ccsc3)cc2n1 [Compound 341, N4-(2-(pyridazin-3-yl)ethyl)-7-(thiophen-3-yl)quinolin-2,4-diamine] | 0.62 | > 100 | > 100 | –
25 | Nc1cc(NCCc2cccnn2)c2ccc(-c3cccs3)cc2n1 [Compound 342, N4-(2-(pyridazin-3-yl)ethyl)-7-(thiophen-2-yl)quinolin-2,4-diamine] | 1.1 | > 100 | > 100 | –
26 | Nc1cc(NCCc2cccnn2)c2ccc(-n3cccn3)cc2n1 [Compound 343, 7-(1H-pyrazol-1-yl)-N4-(2-(pyridazin-3-yl)ethyl)quinoline-2,4-diamine] | 0.61 | > 100 | > 100 | –
27 | Nc1cc(NCCC2CCOCC2)c2ccc(-c3cc[nH]n3)cc2n1 [Compound 344, 7-(1H-pyrazol-3-yl)-N4-(2-(tetrahydro-2H-pyran-4-yl)ethyl)quinoline-2,4-diamine] | 1.11 | > 100 | > 100 | –
28 | Nc1cc(NCCC2CCOCC2)c2ccc(-c3ccsc3)cc2n1 [Compound 345, N4-(2-(tetrahydro-2H-pyran-4-yl)ethyl)-7-(thiophen-3-yl)quinoline-2,4-diamine] | 1.77 | > 100 | > 100 | –
29 | Nc1cc(-c2cn[nH]c2)c2ccc(-c3ccn[nH]3)cc2n1 [Compound 347, 4-(1H-pyrazol-4-yl)-7-(1H-pyrazol-5-yl)quinolin-2-amine] | 1.18 | > 100 | > 100 | –
